Results as given in patent US4069337A, “2-Substituted-indole-1-lower-alkanecarboxamides having anti-secretory or anti-ulcer activity” (Sterling Drug Inc., priority 1976, dated 1978).
Where two headings read alike, the source gives them in different places.

Experiments:
[1] = tested on: secretion of gastric fluids; assay: anti-secretory activity in pylorus-ligated rats (method of Shay et al.); type: in vivo, male albino Wistar rats; conditions: for inhibition in vivo at 100 mg/kg: Rattus norvegicus, 5 h, read-out: % Inhibition of Free Acid; for inhibition in vivo at 100 mg/kg / pH of the gastric fluid: 100 mg./kg.
Procedure: In standard biological test procedures, described generally by Shay et al., Gastroenterology 5, 43 (1945) and 26, 906 (1954) and by Selmici et al., Acta Physiol. Acad. Sci. Hung. […] Anti-secretory activity was determined in male albino Wistar rats weighing approximately 180 g. using the method described by Shay et al. which is described as follows: the rats were divided into medicated groups of at least five rats each and control groups of ten rats. The rats were medicated orally once daily for 2 days prior to stomach ligation and once again immediately following ligation. All drugs were administered as the free base, and control rats received only the vehicle of medication. The rats were housed individually in wire cages, food was withdrawn 48 hours prior to surgery, and water was withdrawn at the time of surgery. Laparotomy was performed under light ether anesthesia, the pyloric-duodenal junction was ligated, and the wound was closed with metal clips and sprayed with a protective surgical dressing. Five hours following surgery, the rats were sacrificed, the stomach was removed, and the gastric juice collected. The gastric fluid was centrifuged, the total volume, color, and volume of solids were recorded. The pH of the gastric fluid was then determined on a Beckman pH meter, and the "free" and "total" hydrochloric acid content of each gastric sample was determined by titrating an aliquot of the gastric fluid (diluted to approximately 10 ml. with distilled water) by titrating with 0.1N sodium hydroxide against Toepfers reagent and phenolphthalein, respectively. By determining the milliequivalents of hydrochloric acid per milliliter of gastric juice and knowing the total volume of gastric juice secreted by each rat, the total acid output can be calculated. Since pH is a function of "free" acid, the activity of the test compounds can be evaluated by comparison of the mean "free" acid of medicated rats with the mean "free" acid of the controls, and the activity can thus be expressed in terms of percent inhibition of free acid.
(§1) Data obtained on administration of the compounds of formula I in rats in the anti-secretory and anti-ulcer tests described above are given in the table below. Unless noted otherwise, data were obtained on oral administration. Results in the anti-secretory activity tests are given in terms of the pH of the gastric fluid in the test animals and the percent inhibition of free acid, while results in the anti-ulcer test are given either in terms of the percent inhibition of ulcers or as a ratio representing the number of animals with ulcers (as the numerator) to the total number of animals in the test group (as the denominator). All doses are expressed in mg./kg.

[2] = tested on: reserpine-induced stomach ulceration; assay: anti-ulcer activity, reserpine-induced ulcer test (method of Selmici et al.); type: in vivo, male, albino, Sprague-Dawley rats; conditions: for inhibition in vivo at 100 mg/kg / Anti-Ulcer: ratio of number of animals with ulcers to total number of animals in the test group: 100 mg./kg.
Procedure: The anti-ulcer activity of the compounds was determined using the reserpine-induced anti-ulcer test method, described by Selmici et al., which is described briefly as follows: male, albino, Sprague-Dawley rats, weighing approximately 300 g., were divided into medicated and control groups of at least five rats each, and one positive control group of five rats medicated with a known drug at the active dose was run with each experiment. The rats were medicated forty-eight, twenty-four, and one hour before receiving an injection of reserpine. All test drugs were administered orally in terms of base, and the control rats received only the vehicle of medication. The rats were housed individually in wire cages, and food was withdrawn 24 hours prior to injection of reserpine, while water was allowed ad libitum. One hour following the third medication, 5.0 mg. of reserpine per kilogram of body weight in a concentration of 5 mg./ml. was injected intramuscularly in each rat. Eighteen hours after injection the rats were sacrificed, their stomachs removed, opened along the greater curvature, rinsed in warm saline, and pinned to a cork board for gross observation. The stomachs were examined for the number and size of ulcerations located in the glandular portion of the stomach with the aid of a one millimeter grid ocular with a 10x dissecting microscope. The degree of ulceration was arbitrarily graded according to the number and size of the ulcers as follows:
The points were added together and divided by the number of rats in each group to give an ulcer score, and the difference in the mean scores of the medicated and control group was expressed as percent inhibition of ulceration. Alternatively, the results can be expressed as a ratio of the total number of rats with any degree of ulceration (as the numerator) to the total number of rats in the test group (as the denominator).
as §1

Cc1cn(CC(N)=O)c2ccccc12 [Reference, 3-methyl-1-indole-acetamide, reference compound]
inhibition in vivo at 100 mg/kg ([1]; po, oral): 62% | pH of the gastric fluid ([1]; oral): 2.3 | anti-secretory activity (in words) ([1]; rat, in vivo): has anti-secretory and anti-ulcer activities | inhibition in vivo at 100 mg/kg ([2]; Rattus norvegicus, 18 h, oral): 75% | anti-ulcer activity (in words) ([2]; rat, in vivo): has anti-secretory and anti-ulcer activities

Cc1c(C(O)C(F)(F)F)c2ccccc2n1CCC(N)=O (stereo not drawn) [Example 8F, β-[2-Methyl-3-(2-trifluoro-1-hydroxyethyl)-1-indole]-propionamide]
inhibition in vivo at 100 mg/kg ([1]; intraduodenal, i.d.): 69% | inhibition in vivo at 100 mg/kg ([1]; ip, i.p.): 24% | inhibition in vivo at 100 mg/kg ([1]; po, oral): 2% | inhibition in vivo at 100 mg/kg ([1]; sc, s.c.): 7% | pH of the gastric fluid ([1]; i.d.): 1.5 | pH of the gastric fluid ([1]; i.p.): 1.2 | pH of the gastric fluid ([1]; oral): 1.0 | pH of the gastric fluid ([1]; s.c.): 1.0 | inhibition in vivo at 50 mg/kg ([2]; Rattus norvegicus, 18 h, oral, 50 mg./kg.): 45%

Cc1c(C)n(CCC(N)=O)c2ccc(F)cc12 [Example 4C, β-(2,3-Dimethyl-5-fluoro-1-indole)propionamide]
inhibition in vivo at 100 mg/kg ([1]; po, oral): 97% | pH of the gastric fluid ([1]; oral): 5.9 | inhibition in vivo at 25 mg/kg ([2]; Rattus norvegicus, 18 h, oral): 94%

Cc1c(C)n(CCC(=O)N(C)C)c2ccccc12 [Example 2, β-(2,3-dimethyl-1-indole)-N,N-dimethylpropionamide]
inhibition in vivo at 100 mg/kg ([1]; po, oral): 93% | pH of the gastric fluid ([1]; oral): 4.4 | inhibition in vivo at 25 mg/kg ([2]; Rattus norvegicus, 18 h, oral): 34%

CCc1c(C)c2ccccc2n1CC(N)=O [Example 1C, 2-Ethyl-3-methyl-1-indoleacetamide]
inhibition in vivo at 100 mg/kg ([1]; po, oral): 50% | pH of the gastric fluid ([1]; oral): 2.8 | inhibition in vivo at 25 mg/kg ([2]; Rattus norvegicus, 18 h, oral): 84% | inhibition in vivo at 100 mg/kg ([2]; Rattus norvegicus, 18 h, oral): 96%

Cc1c(C)n(CC(C)C(N)=O)c2ccccc12 (stereo not drawn) [Example 4H, β-(2,3-Dimethyl-1-indole) -α-methylpropionamide]
inhibition in vivo at 100 mg/kg ([1]; po, oral): 100% | pH of the gastric fluid ([1]; oral): 5.7 | inhibition in vivo at 100 mg/kg ([2]; Rattus norvegicus, 18 h, oral): 89%

NC(=O)CCn1c(-c2ccccc2)c(C=O)c2ccccc21 [Example 4N, β-(2-Phenyl-3-formyl-1-indole)propionamide]
inhibition in vivo at 100 mg/kg ([1]; oral): 0% | inhibition in vivo at 100 mg/kg ([1]; sc, s.c.): 0% | pH of the gastric fluid ([1]; oral): 1.0 | pH of the gastric fluid ([1]; s.c.): 1.0 | Anti-Ulcer: ratio of number of animals with ulcers to total number of animals in the test group ([2]; oral): 5/5

Cc1c(C(=O)C(F)(F)F)c2ccccc2n1CCC(N)=O [Example 4L, β-(2-Methyl-3-trifluoroacetyl-1-indole)propionamide]
inhibition in vivo at 100 mg/kg ([1]; oral): 46% | inhibition in vivo at 100 mg/kg ([1]; intraduodenal, i.d.): 65% | inhibition in vivo at 100 mg/kg ([1]; ip, i.p.): 78% | pH of the gastric fluid ([1]; i.d.): 2.5 | pH of the gastric fluid ([1]; i.p.): 3.8 | pH of the gastric fluid ([1]; oral): 1.8

Cc1c(C=O)c2ccccc2n1CC(N)=O [Example 6, 2-methyl-3-formyl-1-indoleacetamide]
inhibition in vivo at 100 mg/kg ([1]; oral): 0% | pH of the gastric fluid ([1]; oral): 1.1 | inhibition in vivo at 100 mg/kg ([2]; Rattus norvegicus, 18 h, oral): 0%

Cc1c(C=O)n(CCC(N)=O)c2ccccc12 [Example 4K, β-(2-Formyl-3-methyl-1-indole)propionamide]
inhibition in vivo at 100 mg/kg ([1]; intraduodenal, i.d.): 37% | inhibition in vivo at 100 mg/kg ([1]; ip, i.p.): 54% | pH of the gastric fluid ([1]; i.d.): 1.54 | pH of the gastric fluid ([1]; i.p.): 2.30 | pH of the gastric fluid ([1]; oral): 1.16 | Anti-Ulcer: ratio of number of animals with ulcers to total number of animals in the test group ([2]; oral): 3/5

Cc1c(C)n(CCC(N)=S)c2ccccc12 [Example 7B, β(2,3-dimethyl-1-indole)thiopropionamide]
inhibition in vivo at 100 mg/kg ([1]; po, oral): 60% | pH of the gastric fluid ([1]; oral): 2.2 | inhibition in vivo at 100 mg/kg ([2]; Rattus norvegicus, 18 h, oral): 100%
